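Five compound concentrations were applied to cells in 96-well plates for 48 hours; endpoints were derived by simple linear interpolation of the resulting dose-response curve. Abbreviation: GI50, concentration required for 50% inhibition of growth.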 The source made the active and inactive calls. No stated cut-off is given here; in the data, active = GI50 up to about 1.1 µM and inactive = higher.
Experiments:
Assay in all cases: NCI anticancer screen, dose series, 48 h
[1] = test system: UACC-62
[2] = test system: ACHN
[3] = test system: SK-MEL-5
[4] = test system: DU-145
[5] = test system: SK-MEL-2
[6] = test system: NCI-H522
[7] = test system: A549
[8] = test system: M14
[9] = test system: HCT-15
[10] = test system: SF-268
[11] = test system: RXF 393
[12] = test system: MDA-MB-231
[13] = test system: OVCAR-8
[14] = test system: SF-295
[15] = test system: EKVX
[16] = test system: U-251
[17] = test system: UACC-257
[18] = test system: SK-OV-3
[19] = test system: K562
[20] = test system: HCT-116
[21] = test system: 786-0
[22] = test system: MCF7
[23] = test system: A498
[24] = test system: IGROV-1
[25] = test system: MOLT-4
[26] = test system: SK-MEL-28
[27] = test system: TK-10
[28] = test system: MDA-MB-435
[29] = test system: OVCAR-5
[30] = test system: OVCAR-4
[31] = test system: SF-539
[32] = test system: SNB-19
[33] = test system: OVCAR-3
[34] = test system: UO-31
[35] = test system: CAKI-1
[36] = test system: HT-29
[37] = test system: T47D
[38] = test system: NCI-H460
[39] = test system: SW-620
[40] = test system: MDA-N
[41] = test system: NCI-H23
[42] = test system: PC-3
[43] = test system: HCC 2998
[44] = test system: BT-549
[45] = test system: Hs-578T
[46] = test system: HOP-62
[47] = test system: HOP-92
[48] = test system: HL-60
[49] = test system: LOX IMVI
[50] = test system: KM12
[51] = test system: SN12C
[52] = test system: COLO 205
[53] = test system: CCRF-CEM
[54] = test system: RPMI-8226
[55] = test system: SNB-75
[56] = test system: NCI-H226
[57] = test system: NCI/ADR-RES
[58] = test system: Malme-3M

Measured: GI50

CC(C)=NNC1=NC(C)(C)P(=O)(NNc2ncccn2)S1 (stereo not drawn)
> 100 µM: [9]
inactive: [1] > 100 µM | [2] > 100 µM | [3] > 100 µM | [4] > 100 µM | [5] > 100 µM | [6] > 100 µM | [7] > 100 µM | [8] > 100 µM | [10] > 100 µM | [11] > 100 µM | [12] > 100 µM | [13] > 100 µM | [14] > 100 µM | [15] > 100 µM | [16] > 100 µM | [17] > 100 µM | [18] > 100 µM | [19] > 100 µM | [20] > 100 µM | [21] > 100 µM | [22] > 100 µM | [23] > 100 µM | [24] > 100 µM | [25] > 100 µM | [26] > 100 µM | [27] > 100 µM | [28] > 100 µM | [29] > 100 µM | [30] > 100 µM | [31] > 100 µM | [32] > 100 µM | [33] > 100 µM | [34] > 100 µM | [35] > 100 µM | [36] > 100 µM | [37] > 100 µM | [38] > 100 µM | [39] > 100 µM | [40] > 100 µM | [41] > 100 µM | [42] > 100 µM | [43] > 100 µM | [44] > 100 µM | [45] > 100 µM | [46] > 100 µM | [47] > 100 µM

Oc1ccc2c(c1)OCC1c3ccccc3OC21 (stereo not drawn)
82.6 µM: [9]
inactive: [1] 61.5 µM | [2] 39.8 µM | [3] 38.5 µM | [4] > 100 µM | [5] 60.5 µM | [8] 74 µM | [48] 28.8 µM | [49] 32.3 µM | [10] 25.4 µM | [11] 94.2 µM | [50] 45.4 µM | [12] 78 µM | [13] 48.3 µM | [14] 50.6 µM | [51] 51.6 µM | [15] 27.9 µM | [16] 42.6 µM | [17] 86.9 µM | [18] > 100 µM | [19] 41.2 µM | [20] 91.2 µM | [21] > 100 µM | [22] 86.5 µM | [23] > 100 µM | [24] 51.9 µM | [25] 19.6 µM | [26] > 100 µM | [27] 87.7 µM | [52] > 100 µM | [28] 33.8 µM | [53] 30.3 µM | [29] > 100 µM | [30] 60.8 µM | [31] > 100 µM | [54] 45.7 µM | [32] 40.6 µM | [33] 59 µM | [34] 52.8 µM | [55] 45.2 µM | [35] 46.3 µM | [56] > 100 µM | [36] 37.9 µM | [37] > 100 µM | [38] 41.6 µM | [39] 63.5 µM | [40] 35.6 µM | [41] 44.9 µM | [42] 56.8 µM | [43] 27.8 µM | [57] 37.8 µM | [44] 55.2 µM | [45] 47.5 µM | [46] > 100 µM | [47] > 100 µM

NNC(=O)c1cc(=O)[nH][nH]1
> 100 µM: [9]
inactive: [1] > 100 µM | [2] > 100 µM | [3] > 100 µM | [4] > 100 µM | [5] > 100 µM | [6] > 100 µM | [7] > 100 µM | [8] > 100 µM | [58] > 100 µM | [10] > 100 µM | [11] > 100 µM | [50] > 100 µM | [12] > 100 µM | [13] > 100 µM | [14] > 100 µM | [51] > 100 µM | [15] > 100 µM | [16] > 100 µM | [17] > 100 µM | [18] > 100 µM | [19] > 100 µM | [20] > 100 µM | [21] > 100 µM | [22] > 100 µM | [24] > 100 µM | [25] > 100 µM | [27] > 100 µM | [52] > 100 µM | [28] > 100 µM | [53] > 100 µM | [29] > 100 µM | [30] > 100 µM | [31] > 100 µM | [54] > 100 µM | [32] > 100 µM | [34] > 100 µM | [55] > 100 µM | [35] > 100 µM | [56] > 100 µM | [36] > 100 µM | [37] > 100 µM | [38] > 100 µM | [39] > 100 µM | [40] > 100 µM | [41] > 100 µM | [42] > 100 µM | [57] > 100 µM | [44] > 100 µM | [45] > 100 µM | [47] > 100 µM

Source: ChEMBL document CHEMBL1201862, “PubChem BioAssay data set” (2004)
